Experimental data as given in US20120202883A1, “EFFECTS OF IDH1 AND IDH2 MUTATIONS ON THE CELLULAR METABOLOME” (DUKE UNIVERSITY, priority 2011, published 2012).
Where a SMILES comes first, the peptide text is derived from it.

Tests used:
[1] = system: complex V (ATP synthase) of the mitochondrial electron transport chain; settings: chick neurons; reference 27; cited from earlier work
HOG cells [2] = test: Metabolomic profiling (LC-MS, GC-MS) of HOG cell lysates after 2HG treatment or IDH1 shRNA expression; type: cell-based, human; settings: for number of biochemicals with altered levels: 72 hours, HOG cells vs vector, p<0.05
Excerpt: Cell lines. HOG cells were derived from a human WHO grade III anaplastic oligodendroglioma (28) and previously found not to contain exon 4 IDH1 or exon 4 IDH2 mutations (8). The HOG cell line was kindly donated by Dr. A. T. Campagnoni at UCLA. To express IDH1 and IDH2 transgenes in cells, IDH1 and IDH2 cDNAs, or cDNAs mutagenized to IDH1-R132H or IDH2-R172K, were cloned into pLenti6.2/V5 (Invitrogen, Carlsbad, Calif.). Viruses were created using these constructs in 293FT cells and these were used to transduce cells derived from the same parental pool of HOG cells for 24 h. Cells derived from the same clone were reasoned to have homogenous IDH transgene expression levels and metabolic profiles compared to pools of cells or transiently transfected cells, facilitating the identification of metabolites that have altered levels in different clones. Virus was replaced by fresh media for 48 hours and then stable clones were selected from single-cell dilutions in 5 μg/ml blasticidin for 3 weeks. Stable HOG cell lines containing IDH1 shRNA or control were constructed by transfecting HOG cells with pSuperRetro vector (OligoEngine, Seattle, Wash.) containing IDH1-specific hairpin or a scrambled sequence (5′-cat aac gag cgg aag aac g-3′). The IDH1-specific hairpin was created using the primers 5′-gat ccc cGG GAA GTT CTG GTG TCA Tat tca aga gaT ATG ACA CCA GAA CTT CCC ttt ttg gaa a-3′ and 5′-agc ttt tcc aaa aaG GGA AGT TCT GGT GTC ATA tct ctt gaa TAT GAC ACC AGA ACT TCC Cgg g-3′, with capital letters representing bases homologous to IDH1 sequence. Clones were selected with 500 μg/ml G418 for 3 weeks and expanded after single cell dilution. Percent knockdown was determined by ImageJ (v1.43, available at http://rsbweb.nih.gov/ij/, developed by Wayne Rasband, National Institutes of Health, Bethesda, Md.) analysis of the intensity of immunoblot anti-IDH1 bands, normalized to the intensity of anti-GAPDH internal control bands (FIG. S4A). The same clone of vector, IDH1-WT, and IDH1-R132H HOG cells were used in all experiments.
2HG synthesis. 2HG was synthesized by treatment of D-glutamate (Sigma-Aldrich, St. Louis, Mo.) with nitrous acid to form a lactone, which was then hydrolyzed with NaOH solution to form 2-D-hydroxyl glutarate. Purity was 93%. Powder was resuspended in PBS and filtered through a 0.22 μm filter using sterile technique for treatment of cells.
Metabolomic analysis. Cell line treatment: Cells were grown under respective experimental conditions in IMDM media (Gibco, Invitrogen, Carlsbad, Calif.) supplemented with 10% FBS. For the experiment in FIG. 2, cells were grown in a media mix that also contained either 10% PBS or 10% of a 300 mM or 75 mM 2HG solution in PBS for a final 30 mM or 7.5 mM 2HG. Cells were seeded into flasks three days before harvesting. To harvest cells, media was removed, monolayers were washed with PBS, and 0.05% trypsin/EDTA was added. Cells were incubated for 20 min at 37° C. or until cells detached. Two volumes of media were added to the Trypsin/cell mix and suspended by gentle pipetting and triteration. Cells were counted, and 10^7 cells per sample were spun down at 1000 rpm×3 min in a polystyrene tube. Cells were washed twice with PBS and then snap-frozen on dry ice and stored at −80° C. until analysis.
Metabolite analysis: Metabolomic profiling analysis of all samples was carried out in collaboration with Metabolon (Durham, N.C.) as described previously (29-31), as follows:
Sample Preparation: The sample preparation process was carried out using the automated MicroLabSTAR® system (Hamilton Company, Reno, Nev.). Recovery standards were added prior to the first step in the extraction process for QC purposes. Sample preparation was conducted using a proprietary series of organic and aqueous extractions to remove the protein fraction while allowing maximum recovery of small molecules. The resulting extract was divided into two fractions; one for analysis by LC and one for analysis by GC. […]

HOG cells [3] = test: Targeted LC-MS/MS of NAA and NAAG in HOG cells incubated with NAA or NAAG media; type: cell-based, human
Description: Targeted mass LC-MS/MS. Simultaneous quantification of NAA and NAAG in cell culture media, cell lysates, and tissues was done by liquid chromatography-electrospray ionization-tandem mass spectrometry (LC-ESI-MS/MS).
Sample preparation. Media above the cells and cell lysates: To 20 μL of sample 40 μL of ice-cold methanol was added, mixture vigorously agitated (FastPrep, Qbiogene, Carlsbad, Calif. 20 s, speed 6), left at −20° C. for 15 min, agitated again (same cond.), centrifuged at 16,000 g for 5 min, and 50 μL of supernatant dried by vacuum centrifuge (50° C., 1 hr, SpeedVac, Thermo Scientific, West Palm Beach, Fla.). The dry residue was dissolved by 50 μL of mobile phase A (see below) and 10 μL injected into LC-MS/MS system. Tissue samples: To […] sample of wet tissue, 300 μL of deionized water and one 4 mm ceramic bead was added in 2-mL polypropylene tube and vigorously agitated (FastPrep, 20 s, speed 4, 2 cycles). A 50 μL aliquot of the homogenate was pipetted out for total protein measurement (for tissue mass normalization purpose) and 500 μL methanol added to the original vial which was again agitated (FastPrep, same conditions), left at −20° C. for 15 min, centrifuged at 16,000 g for 5 min, and 650 μL of supernatant dried by vacuum centrifuge (SpeedVac, 50° C., 1.5 hr). The dry residue was dissolved by 50 μL of mobile phase A (see below) and 10 μL injected into LC-MS/MS system.
LC-MS/MS analysis. Equipment: Agilent 1200 series HPLC (Santa Clara, Calif.) and Sciex/Applied Biosystems API 3200 QTrap (Carlsbad, Calif.). Mobile phase A: water, 3% methanol; mobile phase B: acetonitrile/methanol, 1/1. Analytical column: Kinetex C18, 150×4.6 mm, 2.6 μm, and SafeGuard C18 4×3 mm guard-column from Phenomenex (Torrance, Calif.). Column temperature: 45° C. Elution gradient at 1 mL/min flow rate: 0-1 min 0% B, 1-2 min 0-80% B, 2-3.5 min 80% B, 3.5-4 min 80-0% B, 4-10 min 0% B. Injection volume: 10 μL. The Q1/Q3 (m/z) transitions monitored in positive electrospray ionization mode: 176/158 (NAA, quantification), 176/134 (NAA, confirmation), 305/148 (NAAG, quantification), 305/130 (NAAG, confirmation).
Calibration. A set of calibrator samples in corresponding matrix was prepared for calibration by adding appropriate amounts of pure NAA and NAAG at the following concentration levels: 0, 0.01, 0.05, 0.25, 1.25, and 6.25 μg/mL. These samples were analyzed alongside the experimental samples and accuracy acceptance criteria was 85% for each but the lowest level (0.01 μg/mL, 80%). The limit of quantification (at 80% accuracy criterion) was determined to be 10 ng/ml for both NAA and NAAG. Samples in which NAA or NAAG was not detected were assigned to have a value of 0 NAA or NAAG (FIG. 5A,B). Statistically significant differences that we reported (FIG. 5A,B) were still significant when 10 ng/ml was assigned for samples in which NAA or NAAG was not detected. Quadratic least squares regression curve fit was employed to account for slight but predictable nonlinearity (ESI of highly polar analytes) with 1/x weighing factor. The addition of methanol to the sample matrix is shared with a recently reported NAAG analysis method (32). Otherwise this procedure is, to the best of our knowledge, novel.
Univariate statistics. Welch's t-test was used to determine whether mean levels of a biochemical in one experimental group were different from mean levels in another group. […]

[4] = 30 mM 2HG-treated HOG cells vs vector, p<0.001

O=C(O)CC[C@@H](O)C(=O)O [2HG, 2-D-hydroxyl glutarate]
effect on complex V (ATP synthase) [1]: impair | number of biochemicals with altered levels (HOG cells [2]; 7.5 mM 2HG): 117 | 2HG elevation (intracellular) (HOG cells [2]; 30 mM 2HG group, HOG lysate vs vector, p<0.001): 54 fold | number of biochemicals with altered levels (HOG cells [2]; 30 mM 2HG): 130 | reduced and oxidized glutathione (HOG cells [2]; 30 mM 2HG-treated HOG cells vs vector): not significantly affected | α-ketoglutarate higher (HOG cells [2]; 30 mM 2HG-treated HOG cells vs vector, non-significant, p=0.10): 1.3 fold | N-acetyl-aspartate (NAA) lower (HOG cells [2]; 30 mM 2HG-treated HOG cells vs vector, not significantly changed, p=0.38): 1.1 fold | GPC higher (HOG cells [2]; [4]): 3.0 fold | NAAG lower (HOG cells [2]; [4]): 1.8 fold | choline phosphate lower (HOG cells [2]; [4]): 100 fold | glutamate increased (HOG cells [2]; 30 mM 2HG-treated HOG cells vs vector, p=0.002): 1.4 fold

CC(=O)N[C@@H](CC(=O)O)C(=O)O [NAA, N-acetyl-aspartate]
level of NAA in IDH1-R132H expressing cells (HOG cells [3]; HOG IDH1-R132H cells, 100 μM NAA media, 48 hours): increased the level of NAA in IDH1-R132H expressing cells to the normal level of NAA in the vector control | intracellular NAA levels compared to controls (HOG cells [3]; HOG cells in media containing 100 μM NAA, 48 hours): higher | NAAG in HOG cells expressing IDH1-R132H (HOG cells [3]; after NAA treatment (100 μM NAA media, 48 hours)): did not increase

CC(=O)N[C@@H](CC(=O)O)C(=O)N[C@@H](CCC(=O)O)C(=O)O [NAAG, N-acetyl-aspartyl-glutamate] (Ac-Asp-Glu-OH)
NAA levels in NAAG-treated cells (HOG cells [3]; 10 μM NAAG, all groups (vector, IDH1-WT, IDH1-R132H)): modestly increased | intracellular NAAG levels compared to the no treatment group (HOG cells [3]; HOG cells treated with 10 μM NAAG, 48 hours): increased
